Here are results for five cell lines from the supplement of paper PMC10307832.

Common to all, as to test: relative viability (nuclei count vs DMSO), 5 days (fraction); higher = more cells survive
Compound in assay [1]: Cn1nnc2c(C(N)=O)ncn2c1=O [Temozolomide] + CS(=O)(=O)N1CCN(Cc2cc3nc(-c4cccc5[nH]ncc45)nc(N4CCOCC4)c3s2)CC1 [Pictilisib] (partner 1 µM)
A digest of the protocol:
(§1)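 The day after seeding in 1536-well plates, lung cancer cell lines were treated by pin tool with a single drug, or with a fixed anchor-drug dose together with five library-drug doses (not always all listed) in √10 steps. After 5 days, a combined fix-and-stain solution (final 0.05% Triton X-100, 1% formaldehyde, 1 ug/ml Hoechst) was added. Nuclei counted on 4× images gave relative viability as treated counts over vehicle counts, reported as the median of duplicate plates.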

Compound in the assay “AZD5582 + Phenformin”: C[C@@H](C(=O)N[C@@H](C1CCCCC1)C(=O)N2CCC[C@H]2C(=O)N[C@@H]3[C@@H](CC4=CC=CC=C34)OCC#CC#CCO[C@@H]5CC6=CC=CC=C6[C@@H]5NC(=O)[C@@H]7CCCN7C(=O)[C@H](C8CCCCC8)NC(=O)[C@H](C)NC)NC [AZD5582] + N=C(N)NC(=N)NCCc1ccccc1 [Phenformin] (partner 250 µM)
A digest of the protocol: as §1

Compound in assay [2]: Cn1nnc2c(C(N)=O)ncn2c1=O [Temozolomide] + O=C(CCCCCCC(=O)Nc1ccccc1)NO [Vorinostat] (partner 1 µM)
In outline:
as §1

Compound in assay [3]: Cn1nnc2c(C(N)=O)ncn2c1=O [Temozolomide] + CC(=O)Nc1cccc(-n2c(=O)n(C3CC3)c(=O)c3c(Nc4ccc(I)cc4F)n(C)c(=O)c(C)c32)c1 [Trametinib] (partner 0.02 µM)
In outline: as §1

Take NCI-H1915: the relative viability came out at 1.11 in assay [1] (first compound 0.2 µM); 0.914 in assay [1] (first compound 0.6325 µM); 0.962 in assay [1] (first compound 2 µM); 0.468 in assay [1] (first compound 6.325 µM); 0.326 in assay [1] (first compound 20 µM); 0.358 with AZD5582 + Phenformin (first compound 0.001581 µM). In addition, the relative viability with AZD5582 + Phenformin (first compound 0.005 µM) came to 0.361; with AZD5582 + Phenformin (first compound 0.01581 µM), 0.342; with AZD5582 + Phenformin (first compound 0.05 µM) it was 0.367; in assay [2] (first compound 0.2 µM), 0.61; in assay [2] (first compound 0.6325 µM), 0.517; in assay [2] (first compound 2 µM), 0.507. For the same cell line, the relative viability in assay [2] (first compound 6.325 µM) amounted to 0.343; in assay [2] (first compound 20 µM), 0.241; in assay [3] (first compound 0.2 µM), 0.29; in assay [3] (first compound 0.6325 µM) it was 0.288; in assay [3] (first compound 2 µM), 0.32; in assay [3] (first compound 6.325 µM), 0.24. Besides, in assay [3] (first compound 20 µM), the relative viability was found to be 0.201.
For the cell line PC-14, the relative viability in assay [1] (first compound 0.2 µM) turned out to be 0.834; in assay [1] (first compound 0.6325 µM), 0.791; in assay [1] (first compound 2 µM), 0.737; in assay [1] (first compound 6.325 µM), 0.614; in assay [1] (first compound 20 µM), 0.0773; in the assay with AZD5582 + Phenformin (first compound 0.001581 µM), 0.556. Also, the relative viability in the assay with AZD5582 + Phenformin (first compound 0.005 µM) stood at 0.5; with AZD5582 + Phenformin (first compound 0.01581 µM), 0.353; in the assay with AZD5582 + Phenformin (first compound 0.05 µM), 0.511; in assay [2] (first compound 0.2 µM) it was 0.74; in assay [2] (first compound 0.6325 µM), 0.923; in assay [2] (first compound 2 µM), 0.693. Besides, the relative viability in assay [2] (first compound 6.325 µM) worked out at 0.768; in assay [2] (first compound 20 µM) it was 0.0952; in assay [3] (first compound 0.2 µM) it was 0.96; in assay [3] (first compound 0.6325 µM) it was 0.766; in assay [3] (first compound 2 µM), 0.758; in assay [3] (first compound 6.325 µM), 0.813. In assay [3] (first compound 20 µM), the relative viability came to 0.585.
On to LCLC-97TM1, for which the relative viability worked out at 0.197 in assay [1] (first compound 0.2 µM); 0.224 in assay [1] (first compound 0.6325 µM); 0.163 in assay [1] (first compound 2 µM); 0.178 in assay [1] (first compound 6.325 µM); 0.17 in assay [1] (first compound 20 µM); 0.402 in the assay with AZD5582 + Phenformin (first compound 0.001581 µM). Besides, the relative viability came out at 0.467 with AZD5582 + Phenformin (first compound 0.005 µM); 0.2 with AZD5582 + Phenformin (first compound 0.01581 µM); 0.409 with AZD5582 + Phenformin (first compound 0.05 µM); 0.98 in assay [2] (first compound 0.2 µM); 0.763 in assay [2] (first compound 0.6325 µM); 0.659 in assay [2] (first compound 2 µM). Further, the relative viability worked out at 0.514 in assay [2] (first compound 6.325 µM); 0.628 in assay [2] (first compound 20 µM); 0.222 in assay [3] (first compound 0.2 µM); 0.161 in assay [3] (first compound 0.6325 µM); 0.234 in assay [3] (first compound 2 µM); 0.199 in assay [3] (first compound 6.325 µM). In addition, in assay [3] (first compound 20 µM), the relative viability is 0.173.
LU99A: the relative viability was determined as 0.325 in assay [1] (first compound 0.2 µM); 0.351 in assay [1] (first compound 0.6325 µM); 0.324 in assay [1] (first compound 2 µM); 0.343 in assay [1] (first compound 6.325 µM); 0.335 in assay [1] (first compound 20 µM); 0.785 with AZD5582 + Phenformin (first compound 0.001581 µM). The relative viability with AZD5582 + Phenformin (first compound 0.005 µM) turned out to be 0.927; with AZD5582 + Phenformin (first compound 0.01581 µM), 0.819; with AZD5582 + Phenformin (first compound 0.05 µM), 0.997; in assay [2] (first compound 0.2 µM), 0.501; in assay [2] (first compound 0.6325 µM), 0.548; in assay [2] (first compound 2 µM) it was 0.419. In addition, the relative viability in assay [2] (first compound 6.325 µM) amounted to 0.388; in assay [2] (first compound 20 µM), 0.551; in assay [3] (first compound 0.2 µM), 0.555; in assay [3] (first compound 0.6325 µM), 0.522; in assay [3] (first compound 2 µM) it was 0.6; in assay [3] (first compound 6.325 µM), 0.555. The relative viability in assay [3] (first compound 20 µM) was 0.61.
In the case of HCC-366, the relative viability in assay [1] (first compound 0.2 µM) is 0.164; in assay [1] (first compound 0.6325 µM) it was 0.152; in assay [1] (first compound 2 µM) it was 0.198; in assay [1] (first compound 6.325 µM) it was 0.212; in assay [1] (first compound 20 µM) it was 0.219; with AZD5582 + Phenformin (first compound 0.001581 µM), 0.575. Further, the relative viability was determined as 0.564 in the assay with AZD5582 + Phenformin (first compound 0.005 µM); 0.708 in the assay with AZD5582 + Phenformin (first compound 0.05 µM); 0.443 in assay [2] (first compound 0.2 µM); 0.349 in assay [2] (first compound 0.6325 µM); 0.307 in assay [2] (first compound 2 µM); 0.315 in assay [2] (first compound 6.325 µM). Further, the relative viability amounted to 0.351 in assay [2] (first compound 20 µM); 0.395 in assay [3] (first compound 0.2 µM); 0.31 in assay [3] (first compound 0.6325 µM); 0.427 in assay [3] (first compound 2 µM); 0.425 in assay [3] (first compound 6.325 µM); 0.329 in assay [3] (first compound 20 µM).
